≈ marks a conversion by molar mass, not a printed value. Calls of active or inactive are those of the source. No cut-off for these calls is given here.
Experiments:
Candida albicans [1] = assay: Antifungal activity against Candida albicans SC5314 assessed as reduction in fungal growth incubated for 48 hrs by CLSI protocol based microplate reader analysis; assay type: functional
Nakaseomyces glabratus = assay: Antifungal activity against Candida glabrata 10639 assessed as reduction in fungal growth incubated for 48 hrs by CLSI protocol based microplate reader analysis; assay type: functional
Cryptococcus neoformans [2] = assay: Antifungal activity against Cryptococcus neoformans H99 assessed as reduction in fungal growth incubated for 72 hrs by CLSI protocol based microplate reader analysis; assay type: functional
Candida albicans [3] = assay: Antifungal activity against Candida albicans 0304103 assessed as reduction in fungal growth incubated for 48 hrs by CLSI protocol based microplate reader analysis; assay type: functional
Cryptococcus neoformans [4] = assay: Antifungal activity against Cryptococcus neoformans H99 assessed as reduction in fungal growth at 0.25 to 8 ug/ml incubated upto 72 hrs by microplate reader analysis; assay type: functional, organism-based; details: dose 0.25-8 µg/ml
Cryptococcus neoformans [5] = assay: Fungicidal activity against Cryptococcus neoformans H99 assessed as reduction in colony forming units at 8 ug/ml incubated upto 72 hrs by time-kill assay; assay type: functional; set-up: scale not given: the % may be the effect or the level left; details: dose 8 µg/ml
Cryptococcus neoformans [6] = assay: Antifungal activity against Cryptococcus neoformans H99 assessed as reduction in number of colonies at 0.125 to 1 ug/ml incubated for 72 hrs by agar disk diffusion assay; assay type: functional; set-up: scale not given: the % may be the effect or the level left; details: dose 0.125-1 µg/ml, at 0.125 to 1 µg/mL
Cryptococcus neoformans [7] = assay: Inhibition of biofilm formation in Cryptococcus neoformans H99 at 0.25 ug/ml incubated for 24 hrs by XTT reduction assay; assay type: functional
Cryptococcus neoformans [8] = assay: Disruption of preformed mature biofilm in Cryptococcus neoformans H99 assessed as removal of mature biofilm at 0.125 ug/ml incubated for 24 hrs by XTT reduction assay; assay type: functional; set-up: scale not given: the % may be the effect or the level left; details: dose 0.125 µg/ml
Cryptococcus neoformans [9] = assay: Disruption of preformed mature biofilm in Cryptococcus neoformans H99 assessed as removal of mature biofilm at 32 ug/ml incubated for 24 hrs by XTT reduction assay; assay type: functional; set-up: scale not given: the % may be the effect or the level left; details: dose 32 µg/ml
Cryptococcus neoformans [10] = assay: Disruption of preformed mature biofilm in Cryptococcus neoformans H99 assessed as removal of mature biofilm at 0.125 to 32 ug/ml incubated for 24 hrs in presence of 2-phenyl-4,4,5,5-tetramethylimidazoline-l-oxyl 3-oxide by XTT reduction assay; assay type: functional, organism-based; details: dose 0.125-32 µg/ml
[11] = Drug metabolism in Cryptococcus neoformans H99 assessed as NO release by measuring green fluorescence at 8 ug/ml incubated for 12 hrs by DAF-FM DA staining based confocal laser scanning microscopy; assay type: ADME; details: dose 8 µg/ml
Cryptococcus neoformans [12] = assay: Fungicidal activity against Cryptococcus neoformans H99 assessed as cell death by measuring red fluorescence at 8 ug/ml incubated for 12 hrs by PI staining based confocal laser scanning microscopy; assay type: functional, organism-based; details: dose 8.0 µg/ml
Cryptococcus neoformans [13] = assay: Inhibition of CYP51 in Cryptococcus neoformans H99 assessed as reduction in ergosterol level at 0.125 ug/ml incubated for 24 hrs by GC-MS analysis (Rvb= 58.33%); details: dose 0.125 µg/ml
Cryptococcus neoformans [14] = assay: Inhibition of CYP51 in Cryptococcus neoformans H99 assessed as increase in lanosterol level at 0.125 ug/ml incubated for 24 hrs by GC-MS analysis (Rvb= 6.24%); details: dose 0.125 µg/ml
Cryptococcus neoformans [15] = assay: Inhibition of CYP51 in Cryptococcus neoformans H99 assessed as decrease in unknown sterol level at 0.125 ug/ml incubated for 24 hrs by GC-MS analysis (Rvb= 22.95%); details: dose 0.125 µg/ml
Cryptococcus neoformans [16] = assay: Inhibition of CYP51 in Cryptococcus neoformans H99 assessed as increase in other unknown sterol level at 0.125 ug/ml incubated for 24 hrs by GC-MS analysis (Rvb= 12.49%); details: dose 0.125 µg/ml
Cryptococcus neoformans [17] = assay: Antifungal activity against Cryptococcus neoformans H99 assessed as reduction in melanin production at 32 ug/ml by microplate analysis; assay type: functional, organism-based; details: dose 32.0 µg/ml
Cryptococcus neoformans [18] = assay: Antifungal activity against Cryptococcus neoformans H99 assessed as reduction in urease production at 8 ug/ml by microplate analysis; assay type: functional, organism-based; details: dose 8.0 µg/ml
[19] = Metabolic stability in Sprague-Dawley rat plasma assessed as parent compound remaining at 500 uM and measured upto 120 mins by HPLC analysis; assay type: ADME, cell-free; details: 2 h
[20] = Metabolic stability in Sprague-Dawley rat liver microsomes assessed as parent compound remaining at 200 uM and measured upto 120 mins by HPLC analysis; assay type: ADME, Microsome; details: 2 h
Cryptococcus neoformans [21] = assay: In vivo antifungal activity against Cryptococcus neoformans H99 infected in cryptococcal meningitis ICR mouse model assessed as reduction in fungal burden in brain at 10 mg/kg,INH QD for 5 days by CFU assay; assay type: functional, organism-based; details: time 5.0 day
Cryptococcus neoformans [22] = assay: In vivo antifungal activity against Cryptococcus neoformans H99 infected in cryptococcal meningitis ICR mouse model assessed as reduction in fungal burden in lung at 10 mg/kg,INH QD for 5 days by CFU assay; assay type: functional, organism-based; details: time 5.0 day
Cryptococcus neoformans [23] = assay: In vivo antifungal activity against Cryptococcus neoformans H99 infected in cryptococcal meningitis ICR mouse model assessed as reduction in organism brain invasion at 10 mg/kg,INH QD for 5 days by PAS staining based microscopic analysis; assay type: functional; details: time 5.0 day
Cryptococcus neoformans [24] = assay: In vivo antifungal activity against Cryptococcus neoformans H99 infected in cryptococcal meningitis ICR mouse model assessed as reduction in blood vessel congestion at 10 mg/kg,INH QD for 5 days by H and E staining based microscopic analysis; assay type: functional, organism-based; details: time 5.0 day
Cryptococcus neoformans [25] = assay: In vivo antifungal activity against Cryptococcus neoformans H99 infected in cryptococcal meningitis ICR mouse model assessed as reduction in neuronal necrosis at 10 mg/kg,INH QD for 5 days by H and E staining based microscopic analysis; assay type: functional, organism-based; details: time 5.0 day
Cryptococcus neoformans [26] = assay: In vivo antifungal activity against Cryptococcus neoformans H99 infected in cryptococcal meningitis ICR mouse model assessed as reduction in irregular cavities in brain at 10 mg/kg,INH QD for 5 days by H and E staining based microscopic analysis; assay type: functional, organism-based; details: time 5.0 day
Cryptococcus neoformans [27] = assay: Inhibition of biofilm formation in Cryptococcus neoformans H99 at 0.25 ug/ml incubated for 24 hrs in presence of 2-phenyl-4,4,5,5-tetramethylimidazoline-l-oxyl 3-oxide by XTT reduction assay; assay type: functional, organism-based; details: dose 0.25 µg/ml
Cryptococcus neoformans [28] = assay: Antifungal activity against Cryptococcus neoformans H99 assessed as change in internal microstructure by observing cell membrane damage at 0.125 to 4 ug/ml incubated for 8 hrs by TEM analysis; assay type: functional, organism-based; details: dose 0.125-4 µg/ml
Cryptococcus neoformans [29] = assay: Antifungal activity against Cryptococcus neoformans H99 assessed as change in internal microstructure by observing sparse capsule at 0.125 to 4 ug/ml incubated for 8 hrs by TEM analysis; assay type: functional, organism-based; details: dose 0.125-4 µg/ml
Cryptococcus neoformans [30] = assay: Antifungal activity against Cryptococcus neoformans H99 assessed as reduction in melanin production at 16 ug/ml by microplate analysis; assay type: functional, organism-based; details: dose 16.0 µg/ml
Cryptococcus neoformans [31] = assay: Antifungal activity against Cryptococcus neoformans H99 assessed as reduction in urease production at 4 ug/ml by microplate analysis; assay type: functional, organism-based; details: dose 4.0 µg/ml
Cryptococcus neoformans [32] = assay: In vivo antifungal activity against Cryptococcus neoformans H99 infected in cryptococcal meningitis ICR mouse model assessed as reduction in fungal burden in brain at 1 mg/kg,INH QD for 5 days by CFU assay; assay type: functional, organism-based; details: time 5.0 day
Cryptococcus neoformans [33] = assay: In vivo antifungal activity against Cryptococcus neoformans H99 infected in cryptococcal meningitis ICR mouse model assessed as reduction in fungal burden in lung at 1 mg/kg,INH QD for 5 days by CFU assay; assay type: functional, organism-based; details: time 5.0 day
Cryptococcus neoformans [34] = assay: In vivo antifungal activity against Cryptococcus neoformans H99 infected in cryptococcal meningitis ICR mouse model assessed as reduction in organism brain invasion at 1 mg/kg,INH QD for 5 days by PAS staining based microscopic analysis; assay type: functional; details: time 5.0 day
Cryptococcus neoformans [35] = assay: In vivo antifungal activity against Cryptococcus neoformans H99 infected in cryptococcal meningitis ICR mouse model assessed as reduction in blood vessel congestion at 1 mg/kg,INH QD for 5 days by H and E staining based microscopic analysis; assay type: functional, organism-based; details: time 5.0 day
Cryptococcus neoformans [36] = assay: In vivo antifungal activity against Cryptococcus neoformans H99 infected in cryptococcal meningitis ICR mouse model assessed as reduction in neuronal necrosis at 1 mg/kg,INH QD for 5 days by H and E staining based microscopic analysis; assay type: functional, organism-based; details: time 5.0 day
Cryptococcus neoformans [37] = assay: In vivo antifungal activity against Cryptococcus neoformans H99 infected in cryptococcal meningitis ICR mouse model assessed as reduction in irregular cavities in brain at 1 mg/kg,INH QD for 5 days by H and E staining based microscopic analysis; assay type: functional, organism-based; details: time 5.0 day

Row | SMILES | MIC80 (Candida albicans [1]) | MIC80 (Nakaseomyces glabratus) | MIC80 (Cryptococcus neoformans [2]) | MIC80 (Candida albicans [3]) | Activity (Cryptococcus neoformans [4]) | Activity (Cryptococcus neoformans [5]) | Activity (Cryptococcus neoformans [6]) | inhibition at 0.25 µg/mL (Cryptococcus neoformans [7]) | Activity (Cryptococcus neoformans [8]) | Activity (Cryptococcus neoformans [9]) | Activity (Cryptococcus neoformans [10]) | Drug metabolism [11] | Activity (Cryptococcus neoformans [12]) | inhibition (Cryptococcus neoformans [13]) | inhibition (Cryptococcus neoformans [14]) | inhibition (Cryptococcus neoformans [15]) | inhibition (Cryptococcus neoformans [16]) | Stability [19] | Stability [20] | other results
1 | CN(Cc1ccc(OCCCOc2ccc(CC(=O)OCc3ccc(CO[N+](=O)[O-])cc3)cc2)cc1)CC(O)(Cn1cncn1)c1ccc(F)cc1F (stereo unspecified) | 1 µg/mL (≈ 1.37 µM) | 1 µg/mL (≈ 1.37 µM) | 0.5 µg/mL (≈ 0.683 µM) | 32 µg/mL (≈ 43.7 µM) | Dose-Dependent Effect | 100% | 100% | > 50% | 25% | 50% | inactive | Metabolite_Detected | Active | 10.7% | 50.9% | 4.75% | 33.6% |  |  | Activity (Cryptococcus neoformans [17]): Active; Activity (Cryptococcus neoformans [18]): Active
2 | CN(Cc1ccc(OCCCOc2ccc(CC(=O)NCCO[N+](=O)[O-])cc2)cc1)CC(O)(Cn1cncn1)c1ccc(F)cc1F (stereo unspecified) | 1 µg/mL (≈ 1.53 µM) | 1 µg/mL (≈ 1.53 µM) | 0.125 µg/mL (≈ 0.191 µM) | > 64 µg/mL |  |  |  |  |  |  |  |  |  |  |  |  |  | Stable | Stable | Activity (Cryptococcus neoformans [21]): Active; Activity (Cryptococcus neoformans [22]): inactive; Activity (Cryptococcus neoformans [23]): Active; Activity (Cryptococcus neoformans [24]): Active; Activity (Cryptococcus neoformans [25]): Active; Activity (Cryptococcus neoformans [26]): Active
3 | CN(Cc1ccc(OCCCOc2ccc(CC(=O)OCCO[N+](=O)[O-])cc2)cc1)CC(O)(Cn1cncn1)c1ccc(F)cc1F (stereo unspecified) | 1 µg/mL (≈ 1.53 µM) | 1 µg/mL (≈ 1.53 µM) | 0.125 µg/mL (≈ 0.191 µM) | > 64 µg/mL | Dose-Dependent Effect | 100% | 100% | > 50% | 25% | 50% | inactive | Metabolite_Detected | Active | 23.7% | 44.5% | 5.31% | 26.5% | Unstable | Unstable | inhibition (Cryptococcus neoformans [27]): inactive; Activity (Cryptococcus neoformans [28]): Active; Activity (Cryptococcus neoformans [29]): Dose-Dependent Effect; Activity (Cryptococcus neoformans [30]): Active; Activity (Cryptococcus neoformans [31]): Active; Activity (Cryptococcus neoformans [32]): Active; Activity (Cryptococcus neoformans [33]): Active; Activity (Cryptococcus neoformans [34]): Active; Activity (Cryptococcus neoformans [35]): Active; Activity (Cryptococcus neoformans [36]): Active; Activity (Cryptococcus neoformans [37]): Active

Reference: ChEMBL document CHEMBL5370616, “Novel Nitric Oxide Donor-Azole Conjugation Strategy for Efficient Treatment of Cryptococcus neoformans Infections” (J Med Chem, 2023)
